Data taken from article PMC10298982, “Stability Characterization of the Novel Anti-Cancer HM-10/10 HDL-Mimetic Peptide” (International Journal of Molecular Sciences, 2023).

Key:
[1] = test system: Sprague-Dawley rat plasma proteins; conditions: 2.5 h, 2 µM, pH 7.4
[2] = test system: beagle dog plasma proteins; conditions: 2.5 h, 2 µM, pH 7.4
[3] = test system: cynomolgus monkey plasma proteins; conditions: 2.5 h, 2 µM, pH 7.4
in vitro [4] = conditions: CD-1, mouse, plasma
in vitro [5] = conditions: Sprague-Dawley, rat, plasma, pH 7.4
in vitro [6] = conditions: beagle, dog, plasma, pH 7.4
in vitro [7] = conditions: cynomolgus monkey, plasma, pH 7.4

% Protein Free Mean ± SD [1]: 0.7 ± 0.1% | % Protein Free Mean ± SD [2]: 3.1 ± 0.4% | % Protein Free Mean ± SD [3]: 0.9 ± 0.1% | remaining at 2.5 h, 2 µM (in vitro [4]; pH 7.4): 108% | fraction unbound at 2.5 h, 2 µM (in vitro [4]; pH 7.4, % Protein Free Mean ± SD): 0.04 ± 0.002 | fraction unbound at 2.5 h, 2 µM (in vitro [4]; pH 7.4, Fu (Unbound Fraction) Mean ± SD): 0.0398 ± 0.0016 | remaining at 2.5 h, 2 µM (in vitro [5]): 105% | fraction unbound at 2.5 h, 2 µM (in vitro [6]): 0.0305 ± 0.0036 | remaining at 2.5 h, 2 µM (in vitro [6]): 105% | fraction unbound at 2.5 h, 2 µM (in vitro [7]): 0.0086 ± 0.00116
SMILES: CC(=O)CC(c1ccccc1)c1c(O)c2ccccc2oc1=O (stereo not shown) [Warfarin]
